Laboratory results taken from patent US6365622B1 (Sigma-Tau HealthScience S.p.A., priority 1998, dated 2002).

Tests used:
[1] = tested on: brain cells of Wistar rats; assay: Survival and growth of isolated brain cells treated with IGF-I, carnitines and α-lipoic acid; format: cell-based; settings: 24 hours after addition; IGF-I 25 ng/ml, acetyl L-carnitine 100 ng/ml, carnitine mixture 100 ng/ml
Protocol: To this end, brain cells of Wistar rats were isolated according to the method described by Thanguipon (Thanguipon W., Dev. Brain Res., 11, 177, 1983) and were distributed on plates with a density of 3×10^5/cm^2. To the culture medium was added cytosine arabino-furanoside ([…]) to prevent the replication of non-neuronal cells. After eight days, the cells were washed and maintained in a culture in which the serum was replaced with BME (Basal Eagles Medium, Life Technologies, Gaithersburg, Md.) containing a 5 mM KCl concentration.
Cell survival and growth in culture were observed 24 hours after addition of the substances to the medium, on 35 mm disks in contact with 10 ng/ml of fluorescein acetate according to the technique described by Jones (Jones K. H., J. Histochem. Cytochem., 33, 77, 1985). The cell count was done with a fluorescence microscope.

[2] = Toxicological tests: high single doses, parenteral and oral; format: in vivo; settings: rats and mice
[3] = tested on: tibial nerve after cutting the sciatic nerve in diabetic rats; assay: Sciatic nerve regeneration test in diabetic rats (alloxan, cut sciatic nerve); format: in vivo, rat; settings: thirty days after cutting the sciatic nerve, diet 200 mg/kg acetyl L-carnitine or carnitine mixture, 50 mg/kg α-lipoic acid
Protocol: The technique used in these tests is the one described by Fernandez (Fernandez E., Int. J. Clin. Pharmacol. Res., 10, 85, 1990).
Diabetes (serum glucose above 450 mg/dl) was induced in a group of rats by subcutaneous injection of 100 mg/kg of alloxan. […] The compounds were administered a week before cutting the sciatic nerve and for thirty days after cutting.
The sciatic nerve was cut under anaesthesia and after exposing 1 cm of it at the level of the sciatic foramen. The border of the lesion was marked with an epineural suture. Thirty days after cutting the nerve, the tissue of the tibial nerve, one of the main divisions of the sciatic nerve, was examined, after sacrificing the animals. Four cross-sections of the tibial nerve measuring approximately 4 mm in length were thus subjected to morphological and morphometric examination by means of a semiautomatic image analyser (Zeiss Videoplan Image Analyser).
The number of regenerating axons and their density per […] were counted, as well as the degenerate elements.

[4] = tested on: sorbitol in ocular lens and sciatic nerve of diabetic rats; assay: Sorbitol content in ocular lens and sciatic nerve in the diabetic rat (streptozotocin); format: in vivo; settings: i.p. eight days, acetyl L-carnitine 100 mg/kg, carnitine mixture 100 mg/kg, α-lipoic acid 25 mg/kg
Protocol: These tests were conducted in a group of rats in which diabetes was induced by means of the intravenous administration of 50 mg/kg of streptozotocin. One week after injection, serum glucose was tested and those rats were considered diabetic which presented serum glucose values above 450 mg/dl. These animals then received intraperitoneal injections, for eight consecutive days, of acetyl L-carnitine (100 mg/kg), or carnitine mixture (acetyl L-carnitine+propionyl L-carnitine+isovaleryl L-carnitine in a […] weight ratio to one another) (100 mg/kg), or (x-lipoic acid (25 mg/kg), either alone or in various combinations.
After eight days of treatment, after suitable isolation, the sorbitol concentration present in both the sciatic nerve and the ocular lens of diabetic rats was measured before and after the treatment administered.

[5] = tested on: alloxan-induced hyperglycaemia; assay: Experimental diabetic hyperglycaemia test (alloxan); format: in vivo; settings: alloxan hyperglycaemic rat; for Serum glucose, Initial: before treatment; for Serum glucose, After 21 days: oral for three weeks, acetyl L-carnitine 200 mg/kg, α-lipoic acid 50 mg/kg
Protocol: Controlling serum glucose is therefore one of the most important means of preventing diseases related to diabetes. […] The hyperglycaemia was induced by subcutaneous injection of alloxan (100 mg/kg) in the rat, and those rats were considered hyperglycaemia which presented serum glucose levels above 450 mg/dl seven days after the alloxan injection.
Treatment with the test substances was given orally for a period of three weeks. At the end of this period, serum glucose was measured in the various groups of rats, both hyperglycaemic and treated.

wobbler mice = assay: Motor co-ordination abnormality test in wobbler mice; format: in vivo; settings: oral twenty days; for percentage increase in running time: acetyl L-carnitine 200 mg/kg, carnitine mixture 200 mg/kg, α-lipoic acid 50 mg/kg, time to run 10 cm; for holding time on the edge of an inclined platform (in words): versus controls
Protocol: These tests were conducted in “wobbler mice”, that is to say animals that present an unsteady, staggering gait, an abnormal position of the paws and a reduced speed of movement. These abnormalities are related to progressive atrophy of the motoneurons and musculo-cutaneous nerve fibres, particularly as affecting the anterior limbs. The tests were conducted according to the procedure proposed by Mitsumoto (Mitsumoto H., Annal. Neurol., 36, 14, 1994). […] The examination was performed by evaluating, in the treated animals versus controls, the time that each animal holds on to the edge of an inclined platform (holding time) and also the time it takes to run a distance of 10 cm (running time).

[6] = tested on: proprioceptive sensory perception abnormalities induced by cisplatin; assay: Cisplatin-induced sensory neuronal lesions (rotarod test); format: in vivo; settings: mouse rotarod; cisplatin 10 mg/kg s.c. seven days; oral seven days acetyl L-carnitine 300 mg/kg, carnitine mixture 300 mg/kg, α-lipoic acid 50 mg/kg
Protocol: The proprioceptive sensory perception abnormalities induced by cisplatin in the mouse were evaluated by means of the rotarod test (Apfel, S. C., Ann. Neurol., 29, 89, 1991).

[7] = tested on: neuromuscular conduction in diabetic rats; assay: Neuromuscular conduction test in the diabetic rat (streptozotocin); format: in vivo; settings: after 4 weeks
Protocol: In these tests, we induced experimental diabetes in rats by intravenously injecting the experimental animals (rats with a mean weight of 300 g) with 50 mg/kg of streptozotocin. In the animals with induced diabetes (serum glucose above 450 mg/dl) the neuromuscular conduction velocity (NMCN7) was measured. To this end, the sciatic nerve was isolated (2 cm length) and the soleus muscle was separated from the gastrocnemius and its distal tendon cut and connected up to an isometric transducer which recorded the muscular contraction force (MCF). The muscle was stimulated via the sciatic nerve by means of two electrodes inserted at a distance of 10 mm from the nerve and connected up to a stimulator.
A bipolar electrode was placed in the distal end of the muscle for displaying the electromyogram via an oscilloscope.
The NMCV was measured in m/sec, dividing the distance between the stimulation electrodes by the mean difference in latency between the start of the […] potentials evoked in the two sites. The MCF was expressed in mm.

[8] = tested on: cerebral ischaemia induced by occluding the middle cerebral artery (MCA); assay: Neuroprotective activity in experimental cerebral ischaemia (endothelin-1 occlusion of the MCA); format: in vivo; settings: rat, i.v. 5 minutes after endothelin; acetyl L-carnitine 50 mg/kg, carnitine mixture 50 mg/kg, α-lipoic acid 20 mg/kg; read three days later
Protocol: Occlusion of the artery is induced, and the resulting ischaemia can be checked three days after this procedure by transcardiac perfusion of a solution of paraformaldehyde (4% in PBS).
After removing the brain, it was placed in fixative containing 10% sucrose, and cryostatic sections ([…]) fixed with cresyl violet were examined under the optical microscope.
The volume of the infarcted area was calculated according to the method described by Park (Park C. K., Anns. Neurol., 20-150, 1989).

| Molecule | Cell growth (% vs controls) [1] [% vs controls] | amount administered orally without any of the animals dying ([2]; oral) | amount administered parenterally without any of the animals dying ([2]; parenteral) | Density of tibial nerve degenerate elements (per 100 nm^2) [3] [per 100 nm^2] | Number of tibial nerve degenerate elements [3] | Sorbitol, Lens [4] [nmol/mg] | Sorbitol, Sciatic nerve [4] [nmol/mg] | Serum glucose, Initial [5] [mg/dL] | Serum glucose, After 21 days [5] [mg/dL] | percentage increase in running time (wobbler mice) [%] | holding time on the edge of an inclined platform (in words) (wobbler mice) | Equilibrium time [6] [s] | MCF (muscular contraction force) [7] [mm] | NMCV (neuromuscular conduction velocity) [7] [m/sec] | Extent of ischaemia (volume in mm^3) due to occlusion of the MCA, Volume [8] [mm^3] |
| --- | --- | --- | --- | --- | --- | --- | --- | --- | --- | --- | --- | --- | --- | --- | --- |
| IGF-I: insulin-like growth factor, a peptide of the proinsulin group (somatomedins) | 45 ± 2.8 | – | – | – | – | – | – | – | – | – | – | – | – | – | – |
| CC(=O)O[C@H](CC(=O)[O-])C[N+](C)(C)C [Acetyl L-carnitine, acetyl L-carnitine] | 5 ± 0.51 | more than 500 mg/kg | more than 250 mg/kg | 0.16 ± 0.02 | 560 ± 61 | 32.7 ± 2.5 | 1.15 ± 0.11 | 509.5 ± 28 | 405.9 ± 25 | 35 ± 3.2 | improves | 9.5 ± 0.6 | 40.6 ± 3.4 | 38.5 ± 1.9 | 25.6 ± 1.5 |
| O=C(O)CCCCC1CCSS1 (stereo not drawn) [α-lipoic acid] | 5 ± 0.39 | – | – | 0.20 ± 0.04 | 590 ± 0.70 | 30.8 ± 3.2 | 1.08 ± 0.10 | 502.8 ± 36 | 360.4 ± 30 | 40 ± 3.9 | improves | 9.9 ± 0.8 | 41.9 ± 3.3 | 40.1 ± 1.5 | 34.5 ± 2.1 |
| N.N.[Cl][Pt][Cl] [Cisplatin, cisplatin] | – | – | – | – | – | – | – | – | – | – | – | 8.4 ± 0.8 | – | – | – |
